# Literature values in patent US20100209332A1, “Nonaqueous Chlorine Dioxide-Generating Compositions and Methods Related Thereto” (BASF Catalysts LLC, priority 2009, published 2010).
# Several values for one entry are separate records, joined by “and”; a condition that tells them apart may be missing. Identical values can stand only once.
# Settings: sources: † clippercontrols.com URL, § Handbook of Chemistry and Physics, 52nd Ed.
row,SMILES,"Dielectric Constant, at 18-25 deg C."
1,CCCCO [Butyl alcohol],"17.1-17.8^†,§"
2,OCC(O)CO [Glycerine],"42.5^†,§"
3,CC(C)O [Isopropanol],18.3 and 20.1
4,CCCCCCCC(=O)O [Octanoic acid],3.2^†
5,CCCCCCCC/C=C\CCCCCCCC(=O)O [Oleic acid],"2.5^†,§"
6,CC(O)CO (stereo not shown) [Propylene glycol],"32^†,§"
7,O [Water],80.4 and 78.5
